Experimental data: US20250082714A1, “METHODS AND COMPOSITIONS FOR THE TREATMENT OR PREVENTION OF MUSCULAR DYSTROPHY” (Stealth BioTherapeutics Inc., priority 2021, published 2025)
Values joined by “and” are separate entries in the source; they are usually repeats but may differ in a detail not shown here. Identical values can stand only once. Where a SMILES comes first, the peptide text is derived from it. [ ]: non-standard residue; d: D form. Dmt = Cc1cc(O)cc(C)c1C[C@H](N)C(=O)O

Key:
[1] = system: C57BL/10ScSn-Dmdmdx/J (mdx) mice; assay: H&E inflammation analysis of TA muscle sections; type: in vivo, mouse; conditions: as compared to the mdx vehicle group; PMO 125 mg/kg, MTP-131 5 mg/kg
Protocol: (§1) Treatment groups. Four-week-old C57BL/10ScSnJ (stock #000476) and C57BL/10ScSn-Dmdmdx/J mice (stock #001801) were sourced from Jackson Laboratory in Bar Harbor, USA and sorted into a total of five treatment groups (Table 1). The C57BL/10ScSnJ (BL10) mice received vehicle #1 (1×PBS) and vehicle #2 (0.9% Saline). Of the C57BL/10ScSn-Dmdmdx/J (mdx) groups, one received vehicle #1(1×PBS) and vehicle #2 (0.9% Saline), the second group was treated with PMO (125 mg/kg) and vehicle #2 (0.9% Saline), the third group was treated with vehicle #1 (1×PSB) and MTP-131 (5 mg/kg), and the final group was treated with both PMO (125 mg/kg) and MTP-131 (5 mg/kg). PMO compound and the respective vehicle (1×PBS) was administered weekly via retro-orbital injection. MTP-131 compound and the vehicle (0.9% saline) were administered daily via intraperitoneal (IP) injection. Treatment was for a total of 7 weeks.
Histological analysis—H&E—Inflammation Analysis. TA muscle (n=8/group) was sectioned at 10 μm (2 sections/slide) and stored at −80° C. until the staining was performed. Slides were stained with Hematoxylin & Eosin (H&E) and were analyzed for percent inflammation. An inflammatory focus (pl. foci) was measured by counting 10 or more inflammatory cells in a single cluster. These foci areas were measured in mm2 and then compared to the tissue's total area, from which a percentage was calculated. […]

dystrophin = assay: Western blot of dystrophin in tibialis anterior (TA) muscle of treated mdx mice; type: in vivo, mouse (C57BL/10ScSn-Dmdmdx/J; conditions: 7 weeks; for % Dystrophin Average: average of treatment group (n=14-15 mdx mice); for % Dystrophin: individual mdx mouse
Protocol: as §1
Experimental endpoint measures. Upon arrival from Jackson laboratory to the Life Science Research Institute (LSRI) animal facility in Halifax, Canada, 4 week-old BL10 and mdx mice were subjected to a one-week acclimation period to the new facility, after which they were weighed, ear-tagged, and randomized. Once randomized, the animals were treated daily for 7 weeks. During treatment, mice were visually assessed for health (altered food and water consumption, abnormal breathing, circling, eye/hair matting and any other features of abnormal appearance). All treatment groups followed the experimental design outlined in Table 2. In vitro force measurements and takedowns were performed throughout weeks 6-7. Takedowns were staggered to accommodate the in vitro force schedule. Scheduling was representative of the treatment groups.
Treatment preparation—PMO. The phosphorodiamidate morpholino oligomer (PMO) was sourced from Gene Tools, LLC. The PMO used was mExon 23(+07-18) (5′-[…]-3′) (SEQ ID NO: 1) against the boundary sequences of exon and intron 23 of the mouse dystrophin gene. The PMO was prepared fresh weekly by diluting the compound in 1×PBS to the stock concentration of 100 mg/ml. Any remaining compound was stored at 4° C.
Treatment preparation—MTP-131. MTP-131 dosing formulation was prepared weekly and filtered through a […] polyether sulfone (PES) filter. Because MTP-131 is extremely hygroscopic it was conditioned before use and weighed immediately after. If possible, MTP-131 was weighed in a low moisture environment (<20% RH). Prior to use, MTP-131 was removed from the refrigerator. The un-opened bottle was placed in a low moisture environment (<20% RH) and allowed to equilibrate at room temperature for at least 2 hours. Quickly, an aliquot was weighed for use without returning any un-used standard to the bottle and the bottle was immediately tightly capped. Immediately after use, the inside of the bag was wiped with a paper towel to remove any moisture, and the reference bottle (tightly capped) was placed back into the aluminum bag, re-sealed and placed back in 2-8° C. storage.
Treatment administration—PMO. PMO compound was delivered weekly via retro-orbital intravenous injection using a 28-gauge needle. Mice were gently removed from their cage and anesthetized using 5% isoflurane and maintained with 1.5-2% isoflurane. Once the pedal reflex was absent, the mouse was positioned on its side, and loose skin behind the shoulders and ears pinned back using the thumb and middle finger of the non-dominant hand. The skin surrounding the eye was drawn back using the index finger, allowing the eye to protrude slightly. The needle was inserted carefully at a 30° angle with the bevel away from the eye, lateral to the medial canthus, through the conjunctival membrane. Once in the retro-orbital sinus, the compound was slowly injected (10 μl/5-10 seconds). The needle was then carefully removed to prevent injury and leakage. If more than 20 μl of leakage occurred, the injectable was aspirated back into the syringe and injected again. […]

[2] = PMO 125 mg/kg weekly, MTP-131 5 mg/kg daily
[3] = Run 1, Gel #5, PMO 125 mg/kg weekly retro-orbital, MTP-131 5 mg/kg daily IP
[4] = Run 1, Gel #6, PMO 125 mg/kg weekly, MTP-131 5 mg/kg daily
[5] = Run 2, Gel #7, PMO 125 mg/kg weekly, MTP-131 5 mg/kg daily
[6] = Run 2, Gel #8, PMO 125 mg/kg weekly, MTP-131 5 mg/kg daily
[7] = Run 3, Gel #9, PMO 125 mg/kg weekly, MTP-131 5 mg/kg daily
[8] = Run 3, Gel #10, PMO 125 mg/kg weekly, MTP-131 5 mg/kg daily

Row | Compound | inflammation in the tibialis anterior muscles [1] | % Dystrophin Average (dystrophin; [2]) [%] | % Dystrophin (dystrophin; [3]) | % Dystrophin (dystrophin; [4]) | % Dystrophin (dystrophin; [5]) | % Dystrophin (dystrophin; [6]) | % Dystrophin (dystrophin; [7]) | % Dystrophin (dystrophin; [8]) | % Dystrophin (dystrophin; summary by treatment group, PMO 125 mg/kg weekly, MTP-131 5 mg/kg daily)
1 | Cc1cc(O)cc(C)c1C[C@H](NC(=O)[C@H](N)CCCNC(=N)N)C(=O)N[C@@H](CCCCN)C(=O)N[C@@H](Cc1ccccc1)C(N)=O [MTP-131, H-D-Arg-2′6′-Dmt-Lys-Phe-NH2] (H-[dR][Dmt]KF-NH2) | reduced | 0.70 | 0.3% and 0.4% and 0.6% | 1.0% and 1.2% | 0.8% | 0.8% | 1.0% | 0% | 1.00% (3×) and 1.10% and 0.00% (2×) and 0.80% (4×) and 0.30% and 0.40% and 0.60% and 1.20%
2 | PMO: phosphorodiamidate morpholino oligomer mExon 23(+07-18), 5′-GGCCAAACCTCGGCTTACCTGAAAT-3′ (SEQ ID NO: 1), against exon/intron 23 boundary of mouse dystrophin gene; Gene Tools (all phosphorodiamidate morpholino (PMO)) [reference compound] | reduced | 3.66 | 6.0% and 4.2% | 4.7% and 2.7% | 1.2% and 1.7% and 7.4% | 3.2% and 1.4% | 1.4% and 3.9% | 3.1% and 2.9% and 7.2% | –
